# Data reported in patent US8653048B2 (Sanlugen Pharmatech Ltd., priority 2009, dated 2014).
# What was measured:
# [1] = tested on: HT29 tumor transplanted in nude mice; experiment: HT29 tumor transplanted in nude mice, intravenous administration; details: for inhibitory rate (relative tumor volume) at the end of the experiments: HT29; for weight loss rate: 20 mg/kg i.v., d17, HT29 nude mice; for toxicity judged by body weight loss, in words: mouse, in vivo, iv
# Description: 1. […] The drugs were packaged and stored at −20° C.
# The treatment starting day was the first day (d0). […] The tumor tissues were removed and weighed. The inhibition rate of tumor growth was calculated.
# [2] = Stability in human blood plasma (HPLC); assay type: in vitro ADME; details: for stability in blood plasma (in words): 0-12 h; for Degrade % / chromatography peak area of drug: plasma
# Description: Isopropanol (1 mL) was then added into the blood sample and vortexed for 30 s and kept still for 5 min. 2.5 ml of EtOAc was added and votexed and centrifuged at 4000 rpm for 15 minutes. The supernatant was taken and dried by blowing in nitrogen. The dried sample was redissolved in 200 μL HPLC mobile phase solution. 20 μL sample was loaded to the HPLC.
# The samples were processed using the standard method.
# [3] = Metabolism in liver microsomal enzymes (liver S9 fraction); assay type: in vitro ADME, mouse; details: for HPLC peak area of drug: liver S9 fraction + NADPH, 37° C.; for Degrade %: liver S9 fraction
# Description: The liver of a mouse was taken out and washed by cold normal saline and dried with filter paper, then cut into small pieces. They were washed 2-3 times with ice cold PBS (pH=7.4) until the elute became colorless or faint yellow. The small pieces of the liver were cut into fragments. Then PBS (pH=7.4) solution in an amount four times of the weight of the liver was added. The liver fragments were homogenated under ice-bath to avoid the down-regulation of enzymatic activity. The homogenated mixture was transferred into a centrifuge tube with stopper and centrifuged for 20 min at 4000 r/min to get the supernatant. Then, the supernatant was centrifuged at 12000 r/min for 20 min to get the supernatant, which was the S9 fraction.
# Liver microsomal S9 was mixed with drug solutions. 1800 μL of the mixture in test tube was pre-incubated in a water-bath for 5 min at 37° C. 200 μL of 10 mmol/L NADPH solution was added to start the reaction. The final reaction volume was 2 mL. 200 μL of the incubation solution was taken at 0 min, 10 min, 20 min, 40 min, 1 h, 2 h, 4 h, 6 h, 12 h, respectively. 1 mL of ice cold isopropanol was added into the solution immediately and vortexed for 30 s and kept still for 5 min. 2.5 mL of EtOAc was added and vortexed and centrifuged at 4000 rpm for 15 min. The supernatant was taken and dried by blowing in nitrogen. The dried sample was redissolved in 200 μL HPLC mobile phase solution. 20 μL sample was loaded to the HPLC. The chromatography and peak area were recorded.
# [4] = Dissolution in water (description of material); assay type: physicochemical; details: white powder
# [5] = Physiological stability in PBS (pH=7.4) (HPLC); assay type: physicochemical; details: for stability in PBS (pH=7.4) (in words): 0-24 h; for HPLC peak area of drug: PBS (pH = 7.4)
# [6] = tested on: LOVO: a human colon cancer cell line; experiment: MTT analytical method, LOVO cells; assay type: cell-based; details: 72 h
# Excerpt: MTT analytical method was used to test the prodrugs for various tumor cells.
# • 1) Cell lines: NCI-H460, A549, LOVO, HT-29, MDA-MB-231, SGC7901, HepG2 or BEL-7402 cell lines. Culture: adherent culturing in D-MEM (Hyclone, Inc.) containing 10% fetal calf serum. The initial cell concentration was about 3×10^5 /mL. The cell was passaged by 1:3 dilution in every 2-3 days. On the day before the test, the cell was passaged by 1:2 dilution, the cell concentration for the test was 5-10×10^5 /mL. • 2) Dissolution and dilution of compounds: according to the weight and molecular weight of the drugs provided, 100-200 μL of DMSO was added. Then normal saline was added to make the final diluted concentration of the drugs be 5 mM (Note that the final concentration of DMSO should not be more than 10%). • 3) D-MEM or RPMI 1640 cell culture medium, Gibco, Inc. • 4) Fetal calf serum Hyclone, Inc. • 5) Cell dissociation buffer, 0.25% Trypsin+0.02% EDTA. • 6) MTT solution, MTT Powder (Sigma) were dissolved in PBS buffer solution to make a solution of 5 mg/mL. The solution was filtered by a 0.22 μm micropore membrane and stored at −20° C. • 7) PBS buffer solution. • 8) 10% acidified SDS, 0.01N HCl. • 9) Centrifuge tubes, haustorial tubes etc. (BD, Inc.); 96-well plates (Costatr, Inc.) Procedures: • 1) Cell inoculation: Cells grown for 24 hours after passage, which cells were in good growth state, were used. The cells were harvested by the routine method. The cell concentration was adjust with a fresh culture solution to 2×10^5/mL (for adherent cells)-3×10^5/mL (for suspension cells). The adherent cells were inoculated at 100 μL/well and then cultivated in an incubator with 5% CO2 at 37° C. for 24 h. Thereafter the used culture solution was removed and 95 μL/well of fresh culture solution was added. The suspension cells were inoculated at 95 μL/well directly. • 2) Drugs treatment: 9 concentration grades were designed for every drug, and every concentration had 3 wells. The control group had 5 wells. The control group was tested simultaneously in each test. The final concentrations of a drug added were […], and 5 μL normal saline was added to the control group. • 3) Cell culture and detection: the cells were cultured in an incubator with 5% CO2 at 37° C. for 72 h after the drug was added, then 10 μL MTT was added to each well and the culture was continued for 4 h. 100 μL of 10% SDS (containing 0.01N HCl) was added to each well. After 24 h, the absorbance (A) of each well was determined by Bio-rad 680 ELISA with the detection wavelength of 570 nm and the reference wavelength of 630 nm. Calculation:
# First, the absorbance (A) of each well was averaged (removing any data with big difference). […] A0 was the mean absorbance of the control wells. The effect curve of the drug concentration was drawn using EXCEL software and the drug concentration for 50% cell survival was calculated according to an appropriate computing methods.
smiles,measurement,setting,value
"CCCCCCCCCCCCOC(=O)c1nccnc1C(=O)Nc1ccn([C@@H]2O[C@H](CO)[C@@H](O)C2(F)F)c(=O)n1 [Compound 4, Dodecyl-3-((1-((2R,4R,5R)-3,3-difluoro-4-hydroxy-5-(hydroxymethyl)-tetrahydrofuran-2-yl)-2-oxo-1,2-dihydropyrimidin-4-yl)carbamoyl)pyrazine-2-carboxylate]",inhibitory rate (relative tumor volume) at the end of the experiments,[1]; 20 mg/kg i.v. (Gem group; SL01 middle dosage group),23%
same,weight loss rate,[1],8%
same,inhibitory rate (relative tumor volume) at the end of the experiments,[1]; SL01 high dosage group 40 mg/kg i.v.,7%
same,"toxicity judged by body weight loss, in words",[1],neither the gemcitabine positive control group nor SL-01 has obvious toxicity
same,stability in blood plasma (in words),[2],degradable
same,Degrade %,[2]; 0 min,0%
same,chromatography peak area of drug,[2]; 0 min,336275.344
same,Degrade %,[2]; 1 h,2.77%
same,chromatography peak area of drug,[2]; 1 h,326948.219
same,Degrade %,[2]; 2 h,22.11%
same,chromatography peak area of drug,[2]; 2 h,261917.094
same,Degrade %,[2]; 4 h,46.99%
same,chromatography peak area of drug,[2]; 4 h,178242.781
same,Degrade %,[2]; 6 h,82.31%
same,chromatography peak area of drug,[2]; 6 h,59465.750
same,Degrade %,[2]; 8 h,89.64%
same,chromatography peak area of drug,[2]; 8 h,43894.633
same,Degrade %,[2]; 12 h,96.17%
same,chromatography peak area of drug,[2]; 12 h,12894.514
same,HPLC peak area of drug,[3]; 0 min,179613.3
same,HPLC peak area of drug,[3]; 1 h,172893.5
same,HPLC peak area of drug,[3]; 2 h,142419.3
same,HPLC peak area of drug,[3]; 4 h,64632.59
same,HPLC peak area of drug,[3]; 6 h,27009.4
same,HPLC peak area of drug,[3]; 12 h,18730.51
same,Degrade %,[3]; 0 min,0%
same,Degrade %,[3]; 1 h,3.74%
same,Degrade %,[3]; 2 h,20.71%
same,Degrade %,[3]; 4 h,64.02%
same,Degrade %,[3]; 6 h,84.96%
same,Degrade %,[3]; 12 h,89.57%
same,"solubility in water, in words",[4],cannot be dissolved in water well
same,stability in PBS (pH=7.4) (in words),[5],stable
same,HPLC peak area of drug,[5]; 0 min,399795.688
same,HPLC peak area of drug,[5]; 1 h,379856.688
same,HPLC peak area of drug,[5]; 2 h,397725
same,HPLC peak area of drug,[5]; 4 h,373725.406
same,HPLC peak area of drug,[5]; 6 h,360109.813
same,HPLC peak area of drug,[5]; 8 h,362068.688
same,HPLC peak area of drug,[5]; 12 h,386125.688
same,HPLC peak area of drug,[5]; 24 h,387541.688
same,IC50,[6],16 µM
"Nc1ccn([C@@H]2O[C@H](CO)[C@@H](O)C2(F)F)c(=O)n1 [Gemcitabine, gemcitabine, reference compound]",weight loss rate,[1],4%
same,"toxicity judged by body weight loss, in words",[1],neither the gemcitabine positive control group nor SL-01 has obvious toxicity
same,stability in blood plasma (in words),[2],stable
same,chromatography peak area of drug,[2]; 0 min,562562.938
same,chromatography peak area of drug,[2]; 1 h,592859.625
same,chromatography peak area of drug,[2]; 2 h,466418.094
same,chromatography peak area of drug,[2]; 4 h,483743.594
same,chromatography peak area of drug,[2]; 6 h,552648.313
same,chromatography peak area of drug,[2]; 8 h,540059.125
same,chromatography peak area of drug,[2]; 12 h,544300.688
same,Degrade %,[3]; 0 min,0%
same,Degrade %,[3]; 1 h,3.64%
same,Degrade %,[3]; 2 h,56.16%
same,Degrade %,[3]; 4 h,72.02%
same,Degrade %,[3]; 6 h,85.55%
same,Degrade %,[3]; 12 h,95.13%
same,"solubility in water, in words",[4],can be easily dissolved in water
same,stability in PBS (pH=7.4) (in words),[5],stable
same,HPLC peak area of drug,[5]; 0 min,657583.875
same,HPLC peak area of drug,[5]; 1 h,646932.375
same,HPLC peak area of drug,[5]; 2 h,651326.375
same,HPLC peak area of drug,[5]; 4 h,647537.813
same,HPLC peak area of drug,[5]; 6 h,618724
same,HPLC peak area of drug,[5]; 8 h,635026.875
same,HPLC peak area of drug,[5]; 12 h,600425.125
same,HPLC peak area of drug,[5]; 24 h,603669.813
same,IC50,[6],< 1 µM
